Results published in patent EP2249889B1, “CRYSTALLINE SURGICAL IMPLANT COMPOSITE MATERIALS AND KITS AND METHODS OF MANUFACTURE” (Sandvik Intellectual Property AB, priority 2008, dated 2009).
≈ marks a conversion by molar mass, not a printed value.

Legend:
[1] = tested on: Staphylococcus aureus strain Cowan I; assay: Inhibition zones of bacterial growth in bacteria agar around antibiotic loaded HA coated plates; format: cell-based; conditions: loading 15 minutes to 24 hours; release in PBS 15 minutes to 24 hours before agar; incubated 37°C 18 hours
Description: The incorporation of antibiotics was preformed by soaking the HA coated plates in 10 ml PBS containing 50 µg of either Tobramycin, Cephalotin, Amoxicillin or Gentamicin sulfate (Sigma-Aldrich Company Ltd.). The drug loading was performed at room temperature in 50 ml conical test tubes for four different soaking times between 15 minutes and 24 hours.
After incorporation of antibiotics, the plates were immediately transferred to new tubes filled with 40 ml of PBS preheated to 37°C in order to let the incorporated drug leak out for various time intervals before monitoring the antibacterial effect of the drug remaining in the coatings. After either 15 minutes, 60 minutes or 24 hours, the plates were removed and dried at room temperature for further analysis of the remaining antibacterial effect in the Staphylococcus aureus agar described below.
A Mueller-Hinton broth (Merck) containing 0.8% Agar was prepared by dissolving the powder in de-ionized water and sterilized by autoclaving at 121°C for 20 minutes. The broth was then tempered to 40°C in a water bath. Staphylococcus aureus strain Cowan I (NCTC 8530, National Collection of Type Cultures, London, UK) in a PBS suspension was added directly to the broth giving it a final optical density at 600 nm of 0.005 (corresponding to approximately 5x10^6 cfu/ml). The mixture was mixed to homogenously distribute the bacteria in the substrate and then transferred to Petri dishes. The dishes were filled to a depth of 10 mm (50 ml) with the bacterial broth. As the agar stiffened at room temperature, the titanium plates were stuck down in the agar at a right angle to the surface, having both sides in contact with the bacterial substrate. The Petri dishes were then incubated at 37°C for 18 hours. A HA coated reference plate without any antibiotics was also tested. The inhibition zones of bacterial growth formed around the plates were photographed by an imaging instrument (Geldoc 2000, Bio-Rad).

[2] = Release and content of Amoxicillin from HA coatings loaded with pamidronate and Amoxicillin (methods of Examples 8 and 9); format: physicochemical
[3] = format: physicochemical; conditions: for anticipated release time: assuming constant release rate until coatings are emptied, including the 22 hours of release before hydrochloric acid treatment; for drug release rate: from HA coating in PBS at room temperature, between 2 and 22 hours after start; for duration of initial rapid drug release (burst): from HA coatings, loading times 15 minutes, 1 hour, 24 hours
Description: The drug loading was performed at room temperature in 50 ml conical test tubes for four different soaking times between 15 minutes and 24 hours. […] The liquid was circulated through a cell in which the drug concentration was detected. After the release in PBS, the HA coatings soaked for 24 hours in the antibiotic solutions were dissolved by lowering the pH of the PBS to 2 by addition of hydrochloric acid. This was done to release and measure the amount of remaining drugs still present in the coatings after 22 hours of release. To relate the antibiotics concentration released to the antibacterial effect, antimicrobial susceptibility tests (E-test, AB Biodisk, Sweden) for Amoxicillin and Cephalothin was performed on strain S aureus Cowan I and on Staphylococcus epidermidis Kx293A1 (Department of Microbiology, Swedish University of Agricultural Sciences).

[4] = tested on: Staphylococcus epidermidis Kx293A1; assay: E-test antimicrobial susceptibility test (MIC); format: cell-based; conditions: inhibiting bacteria in 1 ml broth
Description: (§1) The drug release rate was analyzed using UV spectroscopy (Shimadzu 1650PC, Shimadzu Corp.) by immersing plates that had been soaked in Amoxicillin and Cephalothin for 15 minutes, 1 hour and 24 hours in 8.2 ml of either water or PBS at room temperature. The release was measured (using a wavelength Of 230 nm for Amoxicillin and 239 nm for Cephalothin) in water for 1 hour to investigate the initial release and then in PBS for 22 hours to investigate the slow release after the initial burst. The liquid was circulated through a cell in which the drug concentration was detected. After the release in PBS, the HA coatings soaked for 24 hours in the antibiotic solutions were dissolved by lowering the pH of the PBS to 2 by addition of hydrochloric acid. This was done to release and measure the amount of remaining drugs still present in the coatings after 22 hours of release. To relate the antibiotics concentration released to the antibacterial effect, antimicrobial susceptibility tests (E-test, AB Biodisk, Sweden) for Amoxicillin and Cephalothin was performed on strain S aureus Cowan I and on Staphylococcus epidermidis Kx293A1 (Department of Microbiology, Swedish University of Agricultural Sciences).
(§2) Table 1 presents the concentration of Amoxicillin and Cephalothin that has to be present to ensure killing of S. aureus and S. epidermidis, as divulged from the antimicrobial susceptibility tests. Table 1: Result from E-test for antimicrobial susceptibility testing, determining the minimum inhibitory concentration (MIC) of antimicrobial agents against microorganisms (inhibiting bacteria in 1 ml broth).

[5] = tested on: S aureus Cowan I; assay: E-test antimicrobial susceptibility test (MIC); format: cell-based; conditions: Staphylococcus aureus, inhibiting bacteria in 1 ml broth
Description: as §1, §2

Row | Molecule | antibacterial effect (inhibition zone, clear agar closest to the plates) [1] | time for which a therapeutically significant dose of amoxicillin was released ([2]; Example 10: co-loading, 10 ml PBS, 6 mg pamidronate disodium salt hydrate, 100 µg Amoxicillin, 50 °C, 25 minutes, rinsed 5 minutes in PBS) [days] | time for which a therapeutically significant dose of amoxicillin was released ([2]; Example 11: sequential loading, 7 mg pamidronate 40°C 12 minutes, then 70 µg Amoxicillin 40°C 15 minutes, soaked in PBS 7 minutes) [days] | anticipated release time [3] [h] | drug release rate [3] [µg/h·cm^2] | duration of initial rapid drug release (burst) [3] | MIC [4] [µg/mL] | MIC [5] [µg/mL] | amount of antibiotics remaining in the coating after 22 hours of release ([3]; buffer)
1 | CC1(C)S[C@@H]2[C@H](NC(=O)[C@H](N)c3ccc(O)cc3)C(=O)N2[C@H]1C(=O)O [Amoxicillin] | the antibiotic effect was preserved | 7 | 6 | 27 | 0.42±0.10 | less than 10 minutes | 0.19 (≈ 0.52 µM) | 0.064 (≈ 0.175 µM) | –
2 | CC(=O)OCC1=C(C(=O)O)N2C(=O)[C@@H](NC(=O)Cc3cccs3)[C@H]2SC1 [Cephalothin] | the antibiotic effect was preserved | – | – | 63 | 0.22±0.06 | less than 10 minutes | 0.064 (≈ 0.161 µM) | 0.064 (≈ 0.161 µM) | ~ 18 µg
3 | NC[C@H]1O[C@H](O[C@H]2[C@H](O)[C@@H](O[C@H]3O[C@H](CO)[C@@H](O)[C@H](N)[C@H]3O)[C@H](N)C[C@@H]2N)[C@H](N)C[C@@H]1O [Tobramycin] | the antibiotic effect was preserved | – | – | – | – | – | – | – | –
4 | Gentamicin sulfate | the antibiotic effect was preserved | – | – | – | – | – | – | – | –
